Experimental findings from patent US20260347319A1, “YAP/TAZ-TEAD ONCOPROTEINS INHIBITORS” (BridGene Biosciences, Inc., priority 2022, published 2026) are described below.

Common to all, as to type: cell-based
For one assay, the system named is TEAD1. Kind of assay: MCF-7 TEAD1-luciferase reporter assay (MCF7-TEAD-Luc). As to conditions: MCF7 cells, overnight; for IC50: Homo sapiens; for TEAD1-Luc MCF7: Max Inhibition: % of DMSO-treated control. On the procedure: The ability of compounds to inhibit TEAD-dependent transcription was assessed in the MCF7-TEAD-Luc reporter assay (BPS #60618). Cells were seeded at 10,000 cells in 200 μL per well into white wall, clear bottom 96-well plates (Corning #3610) and incubated at 37° C. for 24 hours, then treated with serial diluted compounds overnight, and luciferase signal was measured using the ONE-Step Luciferase Assay System (BPS #60690) using an EnSight Multimode plate reader (PerkinElmer, model #MLDHH34000000, integration time 100 ms) with Kaleido 3.0. software. For data analysis, dose-dependent curves were plotted as “% inhibition” (% of DMSO-treated control wells), and were fitted by four-parametric model in GraphPad Prism to obtain IC50 values.

A further assay relates to NCI-H226 cells. Kind of assay: Cell proliferation and viability assay (CPA) in NCI-H226 cells. As to conditions: up to 6 d. The protocol:
Compound potency and efficacy in inhibiting cell proliferation and viability was assessed in multiple cell lines. For example, NCI-H226 cells (ATCC #CRL-5826) were seeded at 2000 cells in 200 μL medium per well of a 96-well plate (Corning #3610) and incubated at 37° C. for 24 hours, then treated with serial diluted compounds for up to 6 d. Viable cells were measured by CellTiter-Glo 2.0 Cell Viability Assay (Promega #G9243), and the luminescence signal was read using an EnSight Multimode plate reader (PerkinElmer, model 9MLDHH34000000, integration time 100 ms) with Kaleido 3.0. software. For data analysis, dose-dependent curves were plotted as “inhibition” (% of DMSO-treated control wells), and were fitted by four-parametric model in GraphPad Prism to obtain IC50 values. […]

A further assay relates to H2052 cells. Kind of assay: Cell proliferation and viability assay (CPA) in H2052 cells. The settings on record: for IC50: Homo sapiens, NCI-H2052, read-out: CPA H2052 IC50 Ave. On the procedure:
Compound potency and efficacy in inhibiting cell proliferation and viability was assessed in multiple cell lines. For example, NCI-H226 cells (ATCC #CRL-5826) were seeded at 2000 cells in 200 μL medium per well of a 96-well plate (Corning #3610) and incubated at 37° C. for 24 hours, then treated with serial diluted compounds for up to 6 d. Viable cells were measured by CellTiter-Glo 2.0 Cell Viability Assay (Promega #G9243), and the luminescence signal was read using an EnSight Multimode plate reader (PerkinElmer, model 9MLDHH34000000, integration time 100 ms) with Kaleido 3.0. software. For data analysis, dose-dependent curves were plotted as “inhibition” (% of DMSO-treated control wells), and were fitted by four-parametric model in GraphPad Prism to obtain IC50 values.
Alternatively, cells were plated at 2000 cells in 200 μL medium per well of a 96-well plate (Corning #3585) overnight, treated with compound for 7 days, cell density images taken by Incycte S3 live cell analysis instrument (Sartorius) every 24 hours at the same time. Images were analyzed by Incucyte's AI-driven software to get C “% confluence” for every image. Dose-dependent curves were plotted as “% inhibition” (% o of DMSO-treated control wells) and were fitted by four-parametric model in GraphPad Prism to obtain IC50 values.

As for `C=CC(=O)N1CC[C@](C#Cc2ccc(C(F)(F)F)cc2)(OC)C1` (single isomer, unassigned) [Example 59, (R*)-1-(3-methoxy-3-((4-(trifluoromethyl)phenyl)ethynyl)pyrrolidin-1-yl)prop-2-en-1-one], in the assay on TEAD1, the 50% inhibitory concentration (IC50) (in general, the concentration that inhibits the measured activity by half) was 10 to 100 nM and the “TEAD1-Luc MCF7: Max Inhibition” value is given as “A (A ≥ 75%)”. Besides, in the assay on NCI-H226 cells (Homo sapiens, 144 h, read-out: CPA NCI-H226 IC50 Ave), the IC50 was ≤ 100 nM. For the same molecule, the “CPA NCI-H226 Max Inh Ave” value in the assay on NCI-H226 cells was “A (A ≥ 75%)”. In addition, in the assay on H2052 cells, the “CPA H2052 Max Inh Ave” value was “B (75% > B ≥ 50%)” and the concentration for half-maximal inhibition (IC50) lay in the range of 100 to 500 nM.
Take `C=CC(=O)N1CC[C@@H](/C=C/c2ccc(C(F)(F)F)cc2)C1` [Example 9]: the half-inhibitory concentration (IC50) in the assay on TEAD1 was in the range of 10 to 100 nM; in the assay on H2052 cells it was 100 to 500 nM.
Taken in the same sequence, the figures for `C=CC(=O)N1CC(/C=C\c2cnc(C(F)(F)F)s2)C1` [Example 12] were 10 to 100 nM and 100 to 500 nM.
On to `C=CC(=O)N1CC(/C=C/c2cccc(C(F)(F)F)c2)C1` [Example 14], for which, in the assay with TEAD1, the IC50 fell in the range of 10 to 100 nM and the “TEAD1-Luc MCF7: Max Inhibition” value is “B (75% > B ≥ 50%)”. Besides, in the assay on H2052 cells, the “CPA H2052 Max Inh Ave” value was “B (75% > B ≥ 50%)” and the IC50 fell in the range of 100 to 500 nM.
Regarding `C=CC(=O)N1CCC(/C=C\c2cccc(C(F)(F)F)c2)CC1` [Example 55, (Z)-1-(4-(3-(trifluoromethyl)styryl)piperidin-1-yl)prop-2-en-1-one], in the assay on TEAD1, the 50% inhibitory concentration (IC50) was > 500 nM and the “TEAD1-Luc MCF7: Max Inhibition” value was “C (50% > C ≥ 2%)”.
On the same counts, the results for `C=CC(=O)N1CC(/C=C/c2ccc(C(F)(F)F)cc2)C(n2cccn2)C1` (stereo not drawn) [Example 70] are 10 to 100 nM and “A (A ≥ 75%)”.
Taken in the same sequence, the figures for `C=CC(=O)N1CCC(C#Cc2ccc(C(F)(F)F)cc2)(OC)CC1` [Example 71, 1-(4-methoxy-4-((4-(trifluoromethyl)phenyl)ethynyl)piperidin-1-yl)prop-2-en-1-one] were 10 to 100 nM and “B (75% > B ≥ 50%)”.
Consider `C=CC(=O)N1CCC(F)(C#Cc2ccc(C(F)(F)F)cc2)CC1` [Example 72, 1-(4-fluoro-4-((4-(trifluoromethyl)phenyl)ethynyl)piperidin-1-yl)prop-2-en-1-one], for which, in the assay on TEAD1, the IC50 is 10 to 100 nM and the “TEAD1-Luc MCF7: Max Inhibition” value is given as “B (75% > B ≥ 50%)”.
Turning to `C=CC(=O)N1CCC(O)(C#Cc2ccc(C(F)(F)F)cc2)CC1` [Example 73, 1-(4-hydroxy-4-((4-(trifluoromethyl)phenyl)ethynyl)piperidin-1-yl)prop-2-en-1-one], in the assay with TEAD1, the IC50 fell in the range of 10 to 100 nM and the “TEAD1-Luc MCF7: Max Inhibition” value is “A (A ≥ 75%)”.
In the case of `C=CC(=O)N1CCC(C)(C#Cc2ccc(C(F)(F)F)cc2)CC1` [Example 74, 1-(4-methyl-4-((4-(trifluoromethyl)phenyl)ethynyl)piperidin-1-yl)prop-2-en-1-one], in the assay with TEAD1, the IC50 was ≤ 10 nM and the “TEAD1-Luc MCF7: Max Inhibition” value is given as “B (75% > B ≥ 50%)”.
On to `C=CC(=O)N1CCCC(C#Cc2cccc(C(F)(F)F)c2)C1` (stereo not drawn) [Example 75, 1-(3-((3-(trifluoromethyl)phenyl)ethynyl)piperidin-1-yl)prop-2-en-1-one], for which, in the assay on TEAD1, the IC50 fell in the range of 10 to 100 nM and the “TEAD1-Luc MCF7: Max Inhibition” value was “A (A ≥ 75%)”.
On the same counts, the results for `C=CC(=O)N1CCCC(C#Cc2ccc(C(F)(F)F)cc2)C1` (stereo not drawn) [Example 76, 1-(3-((4-(trifluoromethyl)phenyl)ethynyl)piperidin-1-yl)prop-2-en-1-one] are 10 to 100 nM and “A (A ≥ 75%)”.
Regarding `CC#CC(=O)N1CC(/C=C/c2ccc(C(F)(F)F)cc2)C1` [Example 77, (E)-1-(3-(4-(trifluoromethyl)styryl)azetidin-1-yl)but-2-yn-1-one], in the assay with TEAD1, the IC50 was in the range of 10 to 100 nM and the “TEAD1-Luc MCF7: Max Inhibition” value was “B (75% > B ≥ 50%)”.
Taken in the same sequence, the figures for `C#CC(=O)N1CC(/C=C/c2ccc(C(F)(F)F)cc2)C1` [Example 78, (E)-1-(3-(4-(trifluoromethyl)styryl)azetidin-1-yl)prop-2-yn-1-one] were 100 to 500 nM and “A (A ≥ 75%)”.
For `C=CC(=O)N1CCC(C#Cc2cccc(C(F)(F)F)c2)CC1` [Example 79, 1-(4-((3-(trifluoromethyl)phenyl)ethynyl)piperidin-1-yl)prop-2-en-1-one], in the assay on TEAD1, the half-inhibitory concentration (IC50) was in the range of 10 to 100 nM and the “TEAD1-Luc MCF7: Max Inhibition” value is “B (75% > B ≥ 50%)”.
With `C=CC(=O)N1CCC(C#Cc2ccc(C(F)(F)F)cc2)CC1` [Example 80, 1-(4-((4-(trifluoromethyl)phenyl)ethynyl)piperidin-1-yl)prop-2-en-1-one], in the assay with TEAD1, the IC50 lay in the range of 10 to 100 nM and the “TEAD1-Luc MCF7: Max Inhibition” value is reported as “A (A ≥ 75%)”.
For `CC#CC(=O)N1CC[C@H](/C=C/c2ccc(C(F)(F)F)cc2)C1` [Example 81, (R,E)-1-(3-(4-(trifluoromethyl)styryl)pyrrolidin-1-yl)but-2-yn-1-one], in the assay on TEAD1, the 50% inhibitory concentration (IC50) lay in the range of 100 to 500 nM and the “TEAD1-Luc MCF7: Max Inhibition” value is given as “B (75% > B ≥ 50%)”.
Regarding `C#CC(=O)N1CC[C@H](/C=C/c2ccc(C(F)(F)F)cc2)C1` [Example 82, (R, E)-1-(3-(4-(trifluoromethyl)styryl)pyrrolidin-1-yl)prop-2-yn-1-one], in the assay on TEAD1, the concentration for half-maximal inhibition (IC50) was in the range of 10 to 100 nM and the “TEAD1-Luc MCF7: Max Inhibition” value is recorded as “A (A ≥ 75%)”.
`C=CC(=O)N1CC[C@H](C(C)(C)/C=C/c2ccc(C(F)(F)F)cc2)C1` [Example 86, (R, E)-1-(3-(2-methyl-4-(4-(trifluoromethyl)phenyl)but-3-en-2-yl)pyrrolidin-1-yl)prop-2-en-1-one]: in the assay on TEAD1, the IC50 is 10 to 100 nM and the “TEAD1-Luc MCF7: Max Inhibition” value is given as “B (75% > B ≥ 50%)”.
Taken in the same sequence, the figures for `C=CC(=O)N1CC[C@H](/C=C\c2ccc(C(F)(F)F)cc2)C1` [Example 87, (R, Z)-1-(3-(4-(trifluoromethyl)styryl)pyrrolidin-1-yl)prop-2-en-1-one] were 100 to 500 nM and “B (75% > B ≥ 50%)”.
As to `C=CC(=O)N1CCC(C/C=C/c2ccc(C(F)(F)F)cc2)CC1` [Example 90, (E)-1-(4-(3-(4-(trifluoromethyl)phenyl)allyl)piperidin-1-yl)prop-2-en-1-one], in the assay with TEAD1, the IC50 lay within 10 to 100 nM and the “TEAD1-Luc MCF7: Max Inhibition” value is “B (75% > B ≥ 50%)”.
For `C=CC(=O)N1CCC(/C=C/C(O)c2ccc(C(F)(F)F)cc2)C1` (stereo not drawn) [Example 99, (E)-1-(3-(3-hydroxy-3-(4-(trifluoromethyl)phenyl)prop-1-en-1-yl)pyrrolidin-1-yl)prop-2-en-1-one], in the assay with TEAD1, the IC50 lay in the range of 10 to 100 nM and the “TEAD1-Luc MCF7: Max Inhibition” value is “B (75% > B ≥ 50%)”.
For the molecule `C=CC(=O)N1CCC(/C=C\C(O)c2ccc(C(F)(F)F)cc2)C1` (stereo not drawn) [Example 100, (Z)-1-(3-(3-hydroxy-3-(4-(trifluoromethyl)phenyl)prop-1-en-1-yl)pyrrolidin-1-yl)prop-2-en-1-one], in the assay with TEAD1, the IC50 lay within 10 to 100 nM and the “TEAD1-Luc MCF7: Max Inhibition” value is recorded as “B (75% > B ≥ 50%)”.
Taken in the same sequence, the figures for `C=CC(=O)N1CCC(/C=C\C(OC)c2ccc(C(F)(F)F)cc2)C1` (stereo not drawn) [Example 101, (Z)-1-(3-(3-methoxy-3-(4-(trifluoromethyl)phenyl)prop-1-en-1-yl)pyrrolidin-1-yl)prop-2-en-1-one] were 100 to 500 nM and “B (75% > B ≥ 50%)”.
Taken in the same sequence, the figures for `C=CC(=O)N1CCC(/C=C/C(OC)c2ccc(C(F)(F)F)cc2)C1` (stereo not drawn) [Example 102, (E)-1-(3-(3-methoxy-3-(4-(trifluoromethyl)phenyl)prop-1-en-1-yl)pyrrolidin-1-yl)prop-2-en-1-one] were 10 to 100 nM and “C (50% > C ≥ 2%)”.
Taken in the same sequence, the figures for `C=CC(=O)N1CCC2(C=C(c3ccc(C(F)(F)F)cc3)OC2)C1` (stereo not drawn) [Example 105, 1-(3-(4-(trifluoromethyl)phenyl)-2-oxa-7-azaspiro[4.4]non-3-en-7-yl)prop-2-en-1-one] were 10 to 100 nM and “A (A ≥ 75%)”.
As to `C=CC(=O)N1CCC2(CC(/C=C/c3ccc(C(F)(F)F)cc3)C2)C1` (stereo not drawn) [Example 106, (E)-1-(2-(4-(trifluoromethyl)styryl)-6-azaspiro[3.4]octan-6-yl)prop-2-en-1-one], in the assay on TEAD1, the IC50 was in the range of 10 to 100 nM and the “TEAD1-Luc MCF7: Max Inhibition” value is on record as “B (75% > B ≥ 50%)”.
